The text below walks through data of patent US12492187B2, “Factor XI activation inhibitors” (Merck Sharp & Dohme LLC, priority 2020, dated 2025).

pEC50: −log10 of the molar value.

T1 sequence (P03951 19-625): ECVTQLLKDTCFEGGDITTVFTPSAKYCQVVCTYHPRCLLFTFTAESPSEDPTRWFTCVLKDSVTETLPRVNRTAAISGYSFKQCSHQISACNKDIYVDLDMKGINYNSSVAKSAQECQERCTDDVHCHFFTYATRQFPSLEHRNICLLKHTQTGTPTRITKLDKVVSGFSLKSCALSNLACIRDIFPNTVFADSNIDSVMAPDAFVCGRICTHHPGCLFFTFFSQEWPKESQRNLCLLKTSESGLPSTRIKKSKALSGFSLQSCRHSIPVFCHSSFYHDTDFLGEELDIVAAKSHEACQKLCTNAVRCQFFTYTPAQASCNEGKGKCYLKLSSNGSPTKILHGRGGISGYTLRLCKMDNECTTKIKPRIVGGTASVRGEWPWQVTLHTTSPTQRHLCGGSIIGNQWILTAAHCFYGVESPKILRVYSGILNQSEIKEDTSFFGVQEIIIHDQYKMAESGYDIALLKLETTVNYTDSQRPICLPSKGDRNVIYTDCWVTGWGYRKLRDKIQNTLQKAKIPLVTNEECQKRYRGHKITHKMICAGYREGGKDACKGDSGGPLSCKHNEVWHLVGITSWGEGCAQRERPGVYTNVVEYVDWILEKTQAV

This assay addresses T1, Human coagulation factor (F)XI (Homo sapiens, UniProt P03951).
T1 construct: purchased Haematologic Technologies Inc. (FXI); Enzyme Research Laboratories (FXIIa) HCXI-150 (FXI); HFXIIa (FXIIa)
Briefly: Inhibition of FXIIa mediated activation of FXI (activation of human Factor XI to XIa by human Factor α-XIIa). The following applies: human FXI pre-incubated with compound 30 min at 22° C., activation by human FXIIa 60 min, z-GPR-AFC substrate, fluorescence 405/510 nm, 4 parameter logistic fit; read-out: Inhibition of FXIIa meditated activation of FXI. The format is biochemical. As to the method: Inhibition of FXIIa Mediated Activation of FXI
Activation of Human Factor XI to XIa by Human Factor α-XIIa
Assay was performed in 50 mM HEPES, 150 mM NaCl, 5 mM CaCl2, 0.1% PEG-8000, pH 7.4 buffer in black, flat-bottom, polystyrene microplates (Corning, Cat #3573). Serial dilutions (10-point, 3.333-fold) of the test compounds delivered as 10 mM DMSO stocks were prepared in the Labcyte Echo-qualified PP 384 well microplates (Labcyte, Cat #P-05525). Human coagulation factor (F)XI (Haematologic Technologies Inc., Cat #HCXI-150, concentration 46 nM, 19.5 uL) was pre-incubated with 0.5 uL of the test compounds for 30 min at 22° C. The activation was initiated by addition of 10 uL of human coagulation factor (F)XIIa (Enzyme Research Laboratories, Cat #HFXIIa, concentration 30 nM) and reaction proceeded for 60 min at 22° C., after which it was quenched by addition of a selective inhibitor of FXIIa (Compound 54 in WO2018093695) concentration 600 uM in DMSO, 1 uL). 10 min after the quench, 29 uL of z-GPR-AFC substrate (Sigma, Cat #C0980-10MG, concentration 200 uM) was added into each well and the detection reaction proceeded for 60 min at 22° C. Fluorescence at 405/510 nm was measured in end-point mode using an Envision plate-reader (Perkin Elmer). IDBS Activity Base XE (ABase) analysis using 4 parameter logistic fit was performed to determine Minimum, Maximum, EC50, and Slope Factor for each compound.
`Cc1nc(C(=O)N2CCC(C#N)(c3ccccc3)CC2)cc(C(=O)N2CCC(N3CCC(F)(F)C3)CC2)c1C` [Example 26, 1-[4-[4-(3,3-difluoropyrrolidin-1-ium-1-yl)piperidine-1-carbonyl]-5,6-dimethyl-pyridine-2-carbonyl]-4-phenyl-piperidine-4-carbonitrile; 2,2,2-trifluoroacetate]: the pEC50 was 6.98.
Turning to `Cc1cnc(C(=O)N2CCC(C#N)(c3ccccc3)CC2)cc1C(=O)N1CC(c2cccc(F)c2)C1` [Example 4, 1-(4-(3-(3-fluorophenyl)azetidine-1-carbonyl)-5-methylpicolinoy1)-4-phenylpiperidine-4-carbonitrile], the pEC50 is 6.70.
The same measure for `Cc1cnc(C(=O)N2CCC(C#N)(c3ccccc3)CC2)cc1C(=O)N1CC(c2ccccc2)C1` [Example 8, 1-(5-methyl-4-(3-phenylazetidine-1-carbonyl)picolinoyl)-4-phenylpiperidine-4-carbonitrile]: 6.92.
The same measure for `Cc1nc(C(=O)N2CCC(C#N)(c3ccccc3)CC2)cc(C(=O)N2CCC(C(C)(C)C)CC2)c1C` [Example 27, 1-[4-(4-tert-butylpiperidine-1-carbonyl)-5,6-dimethyl-pyridine-2-carbonyl] -4-phenyl-piperidine-4-carbonitrile]: 7.60; for `Cc1cnc(C(=O)N2CCC(C#N)(c3ccccc3)CC2)cc1C(=O)N1CCC2c3c(F)cc(F)cc3OC2C1` (stereo not drawn) [Example 19, 1-(4-(5,7-difluoro-1,2,3,4,4a,9a-hexahydrobenzofuro[2,3-c]pyridine-2-carbonyl)-5-methylpicolinoyl)-4-phenylpiperidine-4-carbonitrile]: 7.31; for `Cc1cnc(C(=O)N2CCC(C#N)(c3ccccc3)CC2)cc1C(=O)N1CCC(Cc2ccccc2)CC1` [Example 10, 1-(4-(4-benzylpiperidine-1-carbonyl)-5-methylpicolinoyl)-4-phenylpiperidine-4-carbonitrile]: 7.13.
For `Cc1cnc(C(=O)N2CCC(C#N)(c3ccccc3)CC2)cc1C(=O)N1CCC2c3cc(F)ccc3OC2C1` (stereo not drawn) [Example 14, 1-(4-(6-fluoro-1,2,3,4,4a,9a-hexahydrobenzofuro[2,3-c]pyridine-2-carbonyl)-5-methylpicolinoyl)-4-phenylpiperidine-4-carbonitrile], the pEC50 is 7.35.
The same measure for `Cc1cnc(C(=O)N2CCC(C#N)(c3ccccc3)CC2)cc1C(=O)N1CC(c2ccc(F)cc2)C1` [Example 9, 1-(4-(3-(4-fluorophenyl)azetidine-1-carbonyl)-5-methylpicolinoyl)-4-phenylpiperidine-4-carbonitrile]: 6.97; for `COc1ccc2c(c1)OC1CN(C(=O)c3cc(C(=O)N4CCC(C#N)(c5ccccc5)CC4)ncc3C)CCC21` (stereo not drawn) [Example 21, 1-[4-(7-methoxy-3,4,4a,9a-tetrahydro-1H-benzofuro[2,3-c]pyridine-2-carbonyl)-5-methyl-pyridin-1-ium-2-carbonyl]-4-phenyl-piperidine-4-carbonitrile; 2,2,2-trifluoroacetate]: 6.70; for `Cc1nc(C(=O)N2CCC(C#N)(c3ccccc3)CC2)cc(C(=O)N2CCC(Cc3nccs3)CC2)c1C` [Example 28, 1-[5,6-dimethyl-4-[4-(thiazol-2-ylmethyl)piperidine-1-carbonyl]pyridine-2-carbonyl]-4-phenyl-piperidine-4-carbonitrile]: 7.21.
The value for `Cc1cnc(C(=O)N2CCC(C#N)(c3ccccc3)CC2)cc1C(=O)N(CCC1(O)CCCC1)C1CCC1` [Example 7, 2-(4-cyano-4-phenylpiperidine-1-carbonyl)-N-cyclobutyl-N-(2-(1-hydroxycyclopentyl)ethyl)-5-methylisonicotinamide] was 7.36; that for `Cc1cnc(C(=O)N2CCC(C#N)(c3ccccc3)CC2)cc1C(=O)N1CCC(CCc2ccccc2)CC1` [Example 6, 1-(5-methyl-4-(4-phenethylpiperidine-1-carbonyl)picolinoyl)-4-phenylpiperidine-4-carbonitrile] was 6.82.
